This note sets out measurements from US20100310467A1, “COMPOSITION AND METHOD FOR GENERATING A METABOLIC PROFILE USING 13C-MR DETECTION” (priority 2007, published 2010).

Data set [1] can be described thus: Liquid state polarisation and T1 by liquid state 13C-NMR. Particulars: for T1: at 9.4 T; for Liquid state polarisation: liquid state 13C-NMR at 400 MHz, after 90 minutes DNP and dissolution. The data set is classed as physicochemical. How it is done: In a similar way, the level of polarisation for dissolved hyperpolarised ^13C-fumarate may be determined by liquid state NMR measurements. Again the signal intensity of the dissolved hyperpolarised ^13C-fumarate is compared with the signal intensity of the dissolved ^13C-fumarate before polarisation. The level of polarisation is then calculated from the ratio of the signal intensities of ^13C-fumarate before and after polarisation.
After 90 minutes of dynamic nuclear polarisation, the obtained frozen polarised composition was dissolved in 6 ml of a solution prepared from 5.87 ml water (100 mg/l EDTA added), 133 μl NaOH aq (2 M) and 30 mg NaCl. The pH of the final solution containing the dissolved composition was 7.2. The ^13C1,4-fumarate concentration in said final solution was 50 mM.
Liquid state polarisation was determined by liquid state ^13C-NMR at 400 MHz to be 21%. T1 at 9.4 T was 34 s.

Data set [2] is described as follows: Solid state polarisation by solid state 13C-NMR after DNP. The data set is classed as physicochemical. Particulars: DNP at 1.2 K, 3.35 T, microwave 93.90 GHz, trityl radical and Gd-chelate. The text has this:
The level of polarisation may for instance be determined by solid state ^13C-NMR measurements in solid hyperpolarised ^13C-fumarate, e.g. solid hyperpolarised ^13C-fumarate obtained by dynamic nuclear polarisation (DNP) of ^13C-fumarate. The solid state ^13C-NMR measurement preferably consists of a simple pulse-acquire NMR sequence using a low flip angle. The signal intensity of the hyperpolarised ^13C-fumarate in the NMR spectrum is compared with signal intensity of ^13C-fumarate in a NMR spectrum acquired before the polarisation process. The level of polarisation is then calculated from the ratio of the signal intensities of before and after polarisation.
The probe is inserted into the probe-retaining container, submerged in the liquid helium and irradiated with microwaves, preferably at a frequency of about 94 GHz at 200 mW. The level of polarisation may be monitored by for instance acquiring solid state ^13C-NMR signals of the probe during microwave irradiation. Generally, a saturation curve is obtained in a graph showing NMR signal vs. time. […] A solid state ^13C-NMR measurement suitably consists of a simple pulse-acquire NMR sequence using a low flip angle. The signal intensity of the dynamic nuclear polarised nuclei, i.e. ^13C nuclei in ^13C-fumaric acid or ^13C-fumarate is compared with the signal intensity of the ^13C nuclei in ^13C-fumaric acid or ^13C-fumarate before DNP. The polarisation is then calculated from the ratio of the signal intensities before and after DNP.
To a micro test tube was added ^13C1,4-fumaric acid (33.5 mg, 0.284 mmol), TRIS (42 mg, 0.347 mmol) and 22.5 μl water. The test tube was gently heated and sonicated to dissolve all compounds. […] Polarisation was followed by solid state ^13C-NMR and the solid state polarisation was determined to be 25%.

The subject of a further data set is mouse hind leg muscle. Put plainly: In vivo 13C-MR spectroscopy of mouse leg before and after ischemic injury. The arrangement: species or system C57Bl/6 mouse. How it is done: 175 μl of an imaging medium comprising hyperpolarised sodium ^13C1,4-fumarate which was prepared as described in Example 2 was injected into a C57Bl/6 mouse over a time period of 6 s. The sodium ^13C1,4-fumarate concentration in said imaging medium was about 50 mM. A surface coil (tuned for carbon) was positioned around the leg muscle and signals of ^13C-fumarate and ^13C-malate were detected by ^13C-MR spectroscopy which was carried out in a 2.4 T Bruker spectrometer to generate a metabolic profile. A total of 60 ^13C-spectra were acquired with a repetition time of 2 s and 15 degree RF pulses. Ischemia in a mouse leg muscle was made by strangulation of the hind leg muscle. Following an ischemic period of 30 min the mouse leg muscle was re-perfused for one hour. In this Example, the ^13C-malate signal is approximately 0.5% of the ^13C-fumarate signal in the mouse muscle before ischemia. Following ischemia and 5 min. reperfusion the ^13C-malate signal is approximately 1.5% of the ^13C-fumarate signal. After 60 min. reperfusion the ^13C-malate signal is approximately 4% of the ^13C-fumarate signal. With an identical protocol signals of ^13C-pyruvate and ^13C-lactate were detected by ^13C-MR spectroscopy (polarisation of pyruvate was carried out as described in Example 2 of WO-A-2006/011809).

The subject of data set [3] is subcutaneous mouse lymphoma (EL-4). Put plainly: 13C-dynamic imaging of subcutaneous mouse lymphoma with and without etoposide treatment. The class given is in vivo, C57Bl/6 mouse. Particulars: EL-4 tumours, 22-26 hours after etoposide injection, n=5, signal normalized to maximum fumarate signal. Here is the method:
EL-4 cells were injected into a C57Bl/6 mouse to generate a subcutaneous mouse lymphoma. On day 9 after implantation, the EL4 tumour was imaged. 175 μl of an imaging medium comprising hyperpolarised sodium ^13C1-fumarate-d2 which was prepared as described in Example 3 was injected into the mouse over a time period of 6 s. The sodium ^13C1-fumarate-d2 concentration in said imaging medium was about 20 mM. A surface coil (tuned for carbon) was positioned over the subcutaneous tumour and signals of ^13C-fumarate and ^13C-malate were detected by ^13C-MR spectroscopy which was carried out using a 2.4 T Bruker spectrometer to generate a metabolic profile of the tumour and the surrounding healthy tissue. A slice selective FID was acquired with a 10° RF flip angle, TR=3 s, and 60 repetitions. […] Signal amplitudes for both malate and fumarate were normalized to the maximum fumarate signal and were measured as a function of time. […] Fumarase may be an ideal candidate enzyme for this because it requires no cofactors for its activity (so its activity is solely determined by the availability of the enzyme and the substrate) and the rate of conversion is very fast in vivo (about ˜2-4 fold faster than lactate dehydrogenase) making it a sensitive test.

In the next data set the test system is cells. The experiment in a line: Further in vitro experiments, malate production after etoposide treatment. The data set is classed as cell-based.
The subject of data set [4] is Dicarboxylate Transporter (DCT). The experiment in a line: In vitro hyperpolarized malate production with transporter inhibition. The data set is classed as cell-based.
Data set [5] relates to MDA-MB-231 cells (human epithelial breast cell adenocarcinoma). The experiment in a line: In vitro 13C-MR detection, conversion of 13C-fumarate to 13C-malate. The class given is cell-based. Here is the method:
(§1) 50 μl (2.7 mM in sodium ^13C1-fumarate-d2) of an imaging medium which was prepared according to Example 3 was mixed into 8*10^6 MDA-MB-231 cells (human epithelial breast cell adenocarcinoma). Signals of ^13C-fumarate and ^13C-malate were detected by acquiring a set of ^13C-MR spectra every 5 s with a 15 degree RF pulse. The result is shown in FIG. 1: ^13Cmalate was building up over time. The conversion rate was 70 μmol/min*g soluble protein with a peak ^13C-malate signal after approximately 30 s. With an identical protocol conversion rates were calculated for three other human cancer cell lines, these are compared in Table 1.
(§2) Table. […] Formation of ^13C1,4-malate-d2 from ^13C1-fumarate is calculated for the 4 investigated cell lines (n≧3). […] This cell line is highly invasive and hormone-insensitive and represents a late stage cancer. Formation rate of malate varies greatly between the two prostate cancer lines, with a 7 times higher conversion rate in the more aggressive PC-3 line, compared to DU-145.

A further data set relates to DU-145 cells. The description is as above. The data set is classed as cell-based, human. Particulars: n≧3. How it is done:
as §1, §2

A further data set deals with H-EMC-SS cells. The description is as above. The class given is cell-based, human. Particulars: n≧3. Here is the method: as §1, §2
The next data set has as its system PC-3 cells. Described as above. The class given is cell-based, human. How it is done: as §1, §2

For `O=[13C](O)/C=C/[13C](=O)O` [^13C1,4-fumarate], in data set [1], the T1 worked out at 34 s and the Liquid state polarisation was 21%.

Consider `O=[13C](O)/C=C/[13C](=O)O` [^13C1,4-fumaric acid], for which the solid state polarisation in [2] amounted to 30%.

Consider `[2H]/C(C(=O)O)=C(/[2H])[13C](=O)O` [^13C1-fumaric acid-d2], for which the solid state polarisation in data set [2] came to 41%.

For the molecule `CC(=O)[13C](=O)O` [^13C-pyruvate, reference compound], the “13C-lactate signal relative to pyruvate signal” value was “back to levels comparable to the healthy muscle” in the data set on mouse hind leg muscle (60 min reperfusion) and “increases to above the pyruvate signal” in the data set on mouse hind leg muscle (directly after ischemia). Also, the “13C-lactate signal as % of the 13C-pyruvate signal” value in the data set with mouse hind leg muscle (healthy muscle) is recorded as “approximately 40%”.

Regarding `COc1cc([C@@H]2c3cc4c(cc3[C@@H](O[C@@H]3O[C@@H]5CO[C@@H](C)O[C@H]5[C@H](O)[C@H]3O)[C@H]3COC(=O)[C@H]23)OCO4)cc(OC)c1O` [etoposide], in data set [3], the “malate signal compared to untreated tumours” value turned out to be 65%. Further, the results for the malate production entry in the data set on cells (after 14 hrs of treatment with etoposide) and in the data set with cells (after 16 hrs of treatment with etoposide) were “increase in malate production” and “further increase”, respectively.

On to `[Cl-].[Li+]` [lithium chloride], for which the “change in hyperpolarized malate production” value in data set [4] (provisional experiments with lithium chloride) is reported as “only a small reduction”.

As for `O=[13C]([O-])/C=C/[13C](=O)[O-].[Na+].[Na+]` [sodium ^13C1,4-fumarate], the “13C-malate signal as % of the 13C-fumarate signal” value in the data set on mouse hind leg muscle (30 min ischemia, 5 min reperfusion) was “approximately 1.5%”; with mouse hind leg muscle (30 min ischemia, 60 min reperfusion), “approximately 4%”; with mouse hind leg muscle (mouse muscle before ischemia) it was “approximately 0.5%”. Further, in data set [1], the T1 is reported as 34 s. Moreover, the Liquid state polarisation in [1] is reported as 29%.

With `[2H]/C(C(=O)[O-])=C(/[2H])[13C](=O)[O-].[Na+].[Na+]` [sodium ^13C1-fumarate-d2], the “conversion rate (fumarate to malate)” value in data set [5] (8*10^6 MDA-MB-231 cells, 50 μl imaging medium (2.7 mM), FIG. 1) is listed as 70 μmol/min*g soluble protein. The Malate formation rate in data set [5] (MDA-MB-231 cells, n≧3) stood at 77 ± 19 μmol min^−1 g^−1 protein; with DU-145 cells, 6 ± 2 μmol min^−1 g^−1 protein; in the data set with H-EMC-SS cells, 40 ± 14 μmol min^−1 g^−1 protein; with PC-3 cells (PC-3 cells, n≧3) it was 42 ± 0.5 μmol min^−1 g^−1 protein. Moreover, the “time of peak 13C-malate signal” value in data set [5] (MDA-MB-231 cells, spectra every 5 s) is reported as “approximately 30 s”. For the same molecule, the “conversion rate in PC-3 compared to DU-145” value with PC-3 cells (prostate cancer lines PC-3 vs DU-145) was 7 times. The molecule also displayed a T1 in data set [1] of 44 s. The Liquid state polarisation in [1] came out at 40%.

For the molecule `O=C(O)CCC(=O)O` [succinate], in [4] (excess (50 mM) of unlabelled, non-hyperpolarized succinate added), the “change in malate production” value is on record as “only a small reduction”.

The molecule TRIS-^13C1,4-fumarate displayed a solid state polarisation in [2] of 25%.
